Assay results taken from ChEMBL document CHEMBL3352818, “Seizure prevention by the naturally occurring phenols, carvacrol and thymol in a partial seizure-psychomotor model” (Bioorg Med Chem Lett, 2014).
Calls of active or inactive are those of the source. The calls are words filed in the database; no cut-off is given here.

How the values were obtained:
Mus musculus [1] = experiment: Anticonvulsant activity in CF1 albino mouse assessed as protection against maximal electroshock-induced seizures at 100 mg/kg, ip after 0.25 hrs; assay type: functional, organism-based; parameters: dose 100 mg/kg
Mus musculus [2] = experiment: Anticonvulsant activity in CF1 albino mouse assessed as protection against maximal electroshock-induced seizures at 100 mg/kg, ip after 0.5 hrs; assay type: functional, organism-based; parameters: dose 100 mg/kg
Mus musculus [3] = experiment: Anticonvulsant activity against CF1 albino mouse seizure model assessed as time to peak effect at 100 mg/kg, ip by 6 Hz psychomotor seizure test; assay type: functional; conditions: route intraperitoneal
Mus musculus [4] = experiment: Anticonvulsant activity against ip dosed CF1 albino mouse seizure model after 4 hrs by 6 Hz psychomotor seizure test; assay type: functional
Mus musculus [5] = experiment: Neurotoxicity in CF1 albino mouse seizure model assessed as time to peak toxic effect at 100 mg/kg, ip after 4 hr by rototod test; assay type: toxicity, organism-based; parameters: dose 100 mg/kg, route intraperitoneal; conditions: in vivo
[6] = Neurotoxicity in ip dosed CF1 albino mouse seizure model after 4 hr by rototod test; assay type: toxicity, organism-based; conditions: in vivo
[7] = Protective index, ratio of TD50 for CF1 albino mouse neurotoxicity to ED50 for protection against 6 Hz electroshock-induced seizure in CF1 albino mouse; assay type: toxicity, organism-based; conditions: in vivo, read-out: Ratio TD50/ED50
Mus musculus [8] = experiment: Neurotoxicity in CF1 albino mouse seizure model at 100 mg/kg, ip after 1 hrs by rototod test; assay type: toxicity, organism-based; parameters: dose 100 mg/kg, route intraperitoneal; conditions: in vivo
Mus musculus [9] = experiment: Neurotoxicity in CF1 albino mouse seizure model at 100 mg/kg, ip after 2 hrs by rototod test; assay type: toxicity, organism-based; parameters: dose 100 mg/kg, route intraperitoneal; conditions: in vivo
Mus musculus [10] = experiment: Neurotoxicity in CF1 albino mouse seizure model at 100 mg/kg, ip after 4 hrs by rototod test; assay type: toxicity, organism-based; parameters: dose 100 mg/kg, route intraperitoneal; conditions: in vivo
Mus musculus [11] = experiment: Anticonvulsant activity in CF1 albino mouse assessed as protection against maximal electroshock-induced seizures at 100 mg/kg, ip after 1 hrs; assay type: functional, organism-based; parameters: dose 100 mg/kg
Mus musculus [12] = experiment: Anticonvulsant activity in CF1 albino mouse assessed as protection against maximal electroshock-induced seizures at 100 mg/kg, ip after 2 hrs; assay type: functional, organism-based; parameters: dose 100 mg/kg
Mus musculus [13] = experiment: Anticonvulsant activity in CF1 albino mouse assessed as protection against pentylenetetrazole-induced seizure at 100 mg/kg, ip after 2 hrs by scMET test; assay type: functional, organism-based; parameters: dose 100 mg/kg
Mus musculus [14] = experiment: Anticonvulsant activity in CF1 albino mouse assessed as protection against pentylenetetrazole-induced seizure at 100 mg/kg, ip after 4 hrs by scMET test; assay type: functional, organism-based; parameters: dose 100 mg/kg
Mus musculus [15] = experiment: Reduction Li-pilocarpine-induced weight loss in protected CF1 albino mouse at 65 mg/kg, ip after 0.5 hrs; assay type: functional, organism-based; parameters: dose 65 mg/kg
Mus musculus [16] = experiment: Reduction Li-pilocarpine-induced weight loss in non-protected CF1 albino mouse at 65 mg/kg, ip after 0.5 hrs; assay type: functional, organism-based; parameters: dose 65 mg/kg
Mus musculus [17] = experiment: Anticonvulsant activity against CF1 albino mouse seizure model assessed as protection at 100 mg/kg, ip after 0.5 hrs by 6 Hz psychomotor seizure test; assay type: functional, organism-based; parameters: dose 100 mg/kg
Mus musculus [18] = experiment: Anticonvulsant activity against CF1 albino mouse seizure model assessed as protection at 100 mg/kg, ip after 1 hrs by 6 Hz psychomotor seizure test; assay type: functional, organism-based; parameters: dose 100 mg/kg
Mus musculus [19] = experiment: Neurotoxicity in CF1 albino mouse seizure model at 100 mg/kg, ip after 0.25 hrs by rototod test; assay type: toxicity, organism-based; parameters: dose 100 mg/kg, route intraperitoneal; conditions: in vivo
Mus musculus [20] = experiment: Neurotoxicity in CF1 albino mouse seizure model at 100 mg/kg, ip after 0.5 hrs by rototod test; assay type: toxicity, organism-based; parameters: dose 100 mg/kg, route intraperitoneal; conditions: in vivo
Mus musculus [21] = experiment: Anticonvulsant activity in CF1 albino mouse assessed as protection against pentylenetetrazole-induced seizure at 100 mg/kg, ip after 0.25 hrs by scMET test; assay type: functional, organism-based; parameters: dose 100 mg/kg
Mus musculus [22] = experiment: Anticonvulsant activity in CF1 albino mouse assessed as protection against pentylenetetrazole-induced seizure at 100 mg/kg, ip after 1 hrs by scMET test; assay type: functional, organism-based; parameters: dose 100 mg/kg
Mus musculus [23] = experiment: Anticonvulsant activity against CF1 albino mouse seizure model assessed as protection at 100 mg/kg, ip after 0.25 hrs by 6 Hz psychomotor seizure test; assay type: functional, organism-based; parameters: dose 100 mg/kg
Mus musculus [24] = experiment: Anticonvulsant activity in CF1 albino mouse assessed as protection against maximal electroshock-induced seizures at 100 mg/kg, ip after 4 hrs; assay type: functional
Mus musculus [25] = experiment: Anticonvulsant activity in CF1 albino mouse assessed as protection against pentylenetetrazole-induced seizure at 100 mg/kg, ip after 0.5 hrs by scMET test; assay type: functional, organism-based; parameters: dose 100 mg/kg
Mus musculus [26] = experiment: Anticonvulsant activity in CF1 albino mouse assessed as protection against Li-pilocarpine-induced seizure at 65 mg/kg, ip; assay type: functional, organism-based; parameters: dose 65 mg/kg
Mus musculus [27] = experiment: Anticonvulsant activity in CF1 albino mouse assessed as protection against pentylenetetrazole-induced seizure at 200 mg/kg, ip after 4 hrs by scMET test; assay type: functional; conditions: route intraperitoneal
Mus musculus [28] = experiment: Anticonvulsant activity against CF1 albino mouse seizure model assessed as protection at 100 mg/kg, ip after 4 hrs by 6 Hz psychomotor seizure test; assay type: functional, organism-based; parameters: dose 100 mg/kg

Compound	Activity (Mus musculus [1])	Activity (Mus musculus [2])	Time (Mus musculus [3]) [h]	ED50 (Mus musculus [4]) [mg/kg]	Time (Mus musculus [5]) [h]	TD50 at 4 h [6] [mg/kg]	selectivity ratio [7]	Activity (Mus musculus [8])	Activity (Mus musculus [9])	Activity (Mus musculus [10])	Activity (Mus musculus [11])	Activity (Mus musculus [13])	Activity (Mus musculus [19])	Activity (Mus musculus [20])	further results
CC(C)c1ccccc1O	inactive	inactive	0.25	49.9	4	142	2.8	Non-toxic	Non-toxic	Non-toxic	inactive	inactive	–	–	Activity (Mus musculus [12]): inactive; Activity (Mus musculus [14]): inactive; inhibition (Mus musculus [15]): inactive; inhibition (Mus musculus [16]): inactive
CC(C)c1cccc(O)c1	inactive	inactive	0.25	53.8	4	129	2.4	–	–	Non-toxic	–	inactive	Non-toxic	Non-toxic	Activity (Mus musculus [17]): inactive; Activity (Mus musculus [18]): Active; Activity (Mus musculus [21]): inactive; Activity (Mus musculus [22]): inactive; Activity (Mus musculus [14]): inactive
NC(=O)N1c2ccccc2C=Cc2ccccc21 [CARBAMAZEPINE]	–	–	–	47.9	–	–	–	–	–	–	–	–	–	–	–
Cc1ccc(C(C)C)cc1O [CARVACROL]	inactive	inactive	0.25	35.8	6	191	5.3	Non-toxic	Non-toxic	Non-toxic	inactive	inactive	Non-toxic	Non-toxic	Activity (Mus musculus [23]): inactive; Activity (Mus musculus [17]): inactive; Activity (Mus musculus [12]): inactive; Activity (Mus musculus [24]): inactive; inhibition in vivo at 100 mg/kg (Mus musculus [24]; route intraperitoneal): 20%; Activity (Mus musculus [21]): inactive; Activity (Mus musculus [25]): inactive; Activity (Mus musculus [26]): inactive; inhibition in vivo at 200 mg/kg (Mus musculus [27]): 40%
Cc1ccc(C(C)C)cc1 [P-CYMENE]	–	–	0.25	51.3	–	–	–	–	–	–	–	–	–	–	Activity (Mus musculus [5]): ND(toxic)
CC(C)c1cccc(C(C)C)c1O [PROPOFOL]	–	–	–	32.8	–	–	1.1	–	–	–	–	–	–	–	–
Cc1ccc(C(C)C)c(O)c1 [THYMOL]	–	–	0.25	35.8	0.25	121	3.4	Non-toxic	Non-toxic	Non-toxic	inactive	–	Non-toxic	Non-toxic	Activity (Mus musculus [23]): Active; Activity (Mus musculus [28]): inactive; Activity (Mus musculus [26]): inactive
CN1C(=O)OC(C)(C)C1=O [TRIMETHADIONE]	–	–	–	218	–	–	3.8	–	–	–	–	–	–	–	–
